≈ marks a conversion by molar mass, not a printed value. Like-named read-outs stand apart in the source and are kept apart here. One block for each molecule: values may come before it. Where a SMILES comes first, the peptide text is derived from it. [ ]: non-standard residue; d: D form. Gly(N(CH2)2(3-indolyl)) = O=C(O)CNCCc1c[nH]c2ccccc12; Gly(N-CH2CH2-imidazol-4-yl) = O=C(O)CNCCc1c[nH]cn1; Nspe = C[C@H](NCC(=O)O)c1ccccc1; Nphe = O=C(O)CNCc1ccccc1; Nlys = NCCCCNCC(=O)O
Assays:
E. coli ATCC25922 = test system: E. coli ATCC25922
In short: (§1)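 Cation-adjusted MHB2 cultures (18 h, subcultured 4 h) adjusted to 2×10^5–5×10^5 CFU/mL in medium with 0.02% BSA and 0.001% acetic acid.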

S. aureus ATCC 25923 = test system: S. aureus ATCC 25923
In short: as §1

red blood cells = assay: Hemolysis assay; format: cell-based, Sprague-Dawley mouse
In short: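 Peptoid is mixed with 10% (v/v) PBS-washed erythrocytes (male Sprague-Dawley […], 13 weeks) and held 1 h at 37 °C. Hemolysis is calculated from 540 nm absorbance of the supernatant, with PBS as 0% and Triton X-100 as 100%.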

[1] = Tables 11-13, 24 hours at 37° C., maximum concentration 25 μM

Compound: C[C@@H](c1ccccc1)N(CC(=O)N(CCCCN)CC(=O)N(CC(=O)N(CC(N)=O)Cc1ccccc1)Cc1ccccc1)C(=O)CN(CCCCN)C(=O)CN(CCCCN)C(=O)CN(C(=O)CN(C(=O)CN(CCCCN)C(=O)CN(C(=O)CN(C(=O)CNCCCCN)[C@@H](C)c1ccccc1)[C@@H](C)c1ccccc1)[C@@H](C)c1ccccc1)[C@@H](C)c1ccccc1 [Peptoid 45] (H-[Nlys][Nspe][Nspe][Nlys][Nspe][Nspe][Nlys][Nlys][Nspe][Nlys][Nphe][Nphe]-NH2)
MIC E. coli ATCC25922 (E. coli ATCC25922; [1]): >25 µM
MIC S. aureus ATCC 25923 (S. aureus ATCC 25923; [1]): 25 µM (≈ 44 µg/mL)
HC10 (red blood cells): >100/>100 μM
HC50 (red blood cells): >100/>100 μM
Hmax (100 μM) (red blood cells): 4.5 ± 0.2%

Compound: C[C@@H](c1ccccc1)N(CC(N)=O)C(=O)CN(C(=O)CN(CCCCN)C(=O)CN(C(=O)CN(C(=O)CN(CCCCN)C(=O)CN(C(=O)CN(C(=O)CN(CCCCN)C(=O)CN(Cc1ccccc1)C(=O)CN(Cc1ccccc1)C(=O)CNCCCCN)[C@@H](C)c1ccccc1)[C@@H](C)c1ccccc1)[C@@H](C)c1ccccc1)[C@@H](C)c1ccccc1)[C@@H](C)c1ccccc1 [Peptoid 46]
MIC E. coli ATCC25922 (E. coli ATCC25922; [1]): 6.3 µM (≈ 11.3 µg/mL)
MIC S. aureus ATCC 25923 (S. aureus ATCC 25923; [1]): 0.8 µM (≈ 1.43 µg/mL)
HC10 (red blood cells): 6.9 µM
HC50 (red blood cells): 36.5 µM
Hmax (100 μM) (red blood cells): 90.8 ± 2.7%

Compound: C[C@@H](c1ccccc1)N(CC(N)=O)C(=O)CN(CCCCN)C(=O)CN(CCCCN)C(=O)CN(C(=O)CN(C(=O)CN(CCCCN)C(=O)CN(C(=O)CN(C(=O)CN(CCCCN)C(=O)CN(Cc1ccccc1)C(=O)CN(Cc1ccccc1)C(=O)CNCCCCN)[C@@H](C)c1ccccc1)[C@@H](C)c1ccccc1)[C@@H](C)c1ccccc1)[C@@H](C)c1ccccc1 [Peptoid 47]
MIC E. coli ATCC25922 (E. coli ATCC25922; [1]): 25 µM (≈ 44 µg/mL)
MIC S. aureus ATCC 25923 (S. aureus ATCC 25923; [1]): 12.5 µM (≈ 22 µg/mL)
HC10 (red blood cells): >100/>100 μM
HC50 (red blood cells): >100/>100 μM
Hmax (100 μM) (red blood cells): 4.8 ± 0.2%

Compound: C[C@H](NCC(=O)N(CCCCN)CC(=O)N(CC(=O)N(CC(=O)N(CCCCN)CC(=O)N(CC(=O)N(CC(=O)N(CCCCN)CC(=O)N(CC(=O)N(CC(=O)N(CCCCN)CC(=O)N(CC(N)=O)[C@@H](C)c1ccccc1)[C@@H](C)c1ccccc1)[C@@H](C)c1ccccc1)[C@@H](C)c1ccccc1)[C@@H](C)c1ccccc1)[C@@H](C)c1ccccc1)[C@@H](C)c1ccccc1)c1ccccc1 [Peptoid 48] (H-[Nspe][Nlys][Nspe][Nspe][Nlys][Nspe][Nspe][Nlys][Nspe][Nspe][Nlys][Nspe]-NH2)
MIC E. coli ATCC25922 (E. coli ATCC25922; [1]): 12.5 µM (≈ 22.7 µg/mL)
MIC S. aureus ATCC 25923 (S. aureus ATCC 25923; [1]): 3.1 µM (≈ 5.64 µg/mL)
HC10 (red blood cells): 25.7 µM
HC50 (red blood cells): 48.4 µM
Hmax (100 μM) (red blood cells): 79.9 ± 3.6%

MIC E. coli ATCC25922 (E. coli ATCC25922; ATCC25922): 6.3 µM (≈ 11.9 µg/mL)
MIC S. aureus ATCC 25923 (S. aureus ATCC 25923; ATCC 25923): 6.3 µM (≈ 11.9 µg/mL)
Compound: C[C@@H](c1ccccc1)N(CC(N)=O)C(=O)CN(CCCCN)C(=O)CN(CCCCN)C(=O)CN(C(=O)CN(C(=O)CN(CCCCN)C(=O)CN(C(=O)CN(C(=O)CN(CCCCN)C(=O)CN(CCc1c[nH]c2ccccc12)C(=O)CN(CCc1c[nH]c2ccccc12)C(=O)CNCCc1c[nH]cn1)[C@@H](C)c1ccccc1)[C@@H](C)c1ccccc1)[C@@H](C)c1ccccc1)[C@@H](C)c1ccccc1 [Peptoid 72] (H-[Gly(N-CH2CH2-imidazol-4-yl)][Gly(N(CH2)2(3-indolyl))][Gly(N(CH2)2(3-indolyl))][Nlys][Nspe][Nspe][Nlys][Nspe][Nspe][Nlys][Nlys][Nspe]-NH2)
HD10 (red blood cells): 88.9
HD50 (red blood cells): > 100.0
Hmax (100 μM) (red blood cells): 11.8 ± 1.1

MIC E. coli ATCC25922 (E. coli ATCC25922; ATCC25922): 6.3 µM (≈ 11.9 µg/mL)
MIC S. aureus ATCC 25923 (S. aureus ATCC 25923; ATCC 25923): 3.1 µM (≈ 5.85 µg/mL)
Compound: C[C@@H](c1ccccc1)N(CC(N)=O)C(=O)CN(CCCCN)C(=O)CN(CCCCN)C(=O)CN(C(=O)CN(C(=O)CN(CCCCN)C(=O)CN(C(=O)CN(C(=O)CN(CCc1c[nH]cn1)C(=O)CN(CCc1c[nH]c2ccccc12)C(=O)CN(CCc1c[nH]c2ccccc12)C(=O)CNCCCCN)[C@@H](C)c1ccccc1)[C@@H](C)c1ccccc1)[C@@H](C)c1ccccc1)[C@@H](C)c1ccccc1 [Peptoid 73] (H-[Nlys][Gly(N(CH2)2(3-indolyl))][Gly(N(CH2)2(3-indolyl))][Gly(N-CH2CH2-imidazol-4-yl)][Nspe][Nspe][Nlys][Nspe][Nspe][Nlys][Nlys][Nspe]-NH2)
HD10 (red blood cells): >100.0/>100.0
HD50 (red blood cells): >100.0/>100.0
Hmax (100 μM) (red blood cells): 10.0 ± 0.3

— patent US20240226228A1, “ANTIMICROBIAL PEPTOID HAVING IMPROVED SELECTIVITY AND ANTIMICROBIAL COMPOSITION COMPRISING SAME” (priority 2021, published 2024)
